In the assay the target is P2Y12 receptor (Homo sapiens, UniProt Q9H244). Nature of the assay: [33P]2MeS-ADP binding to washed human platelet membranes (Assay 1). More on the design: the P2Y12 receptor, which is found on the surface of platelets; tissue Interstate Blood bank, Memphis, Tenn; host or cells: washed human platelets from platelet rich plasma. As to conditions: for inhibition at 10 µM: at highest concentration tested. The procedure:
1. Inhibition of [^33P]2MeS-ADP Binding to Washed Human Platelet Membranes. The ability of a test compound to bind to the P2Y12 receptor was evaluated in a platelet membrane binding assay. In this competitive binding assay, the test compound competed against a radiolabelled agonist for binding to the P2Y12 receptor, which is found on the surface of platelets. Inhibition of binding of the labeled material was measured and correlated to the amount and potency of the test compound. Data from this assay are presented in Table F. Platelet rich plasma (“PRP”) was obtained from the Interstate Blood bank, Memphis, Tenn. Platelet rich plasma was prepared from blood units collected in ACD ((prepared by (1) combining: 2.5 g sodium citrate (Sigma S-4641); 1.5 g citric acid (Sigma C-0706); and, 2.0 g dextrose (Sigma G-7528); (2) bringing pH to 4.5; and (3) adding water to bring volume to 100 mL) and using the light spin protocol; this protocol involves centrifugation at room temperature for approximately 20 minutes at speeds up to 160×g. Platelet rich plasma is supplied in units of approximately 200 ml. Each unit is distributed into four 50 mL polypropylene conical tubes for centrifugation. Blood from each donor is maintained separately.
The 50 mL tubes were centrifuged for 15 minutes at 1100 rpm in Sorvall RT6000D (with H1000B rotor). Internal centrifuge temperature was maintained at approximately room temperature (22-24° C.). This spin pelleted cellular components remaining from the PRP preparation.
The supernatant was decanted into fresh 50 mL tubes. To avoid carry over of cellular components following the room temperature centrifugation, approximately 5 mL of PRP was left in the tube and discarded. The tubes were capped and inverted 2-3 times and allowed to stand at room temperature for at least 15 minutes following inversion.
Optionally, a Coulter Counter may be used to count platelets from the resting samples during the resting phase. Normal human platelet counts are expected to range from 200,000 to 400,000 per μL of PRP supernatant.
The 50 mL tubes containing PRP supernatant were centrifuged for 15 minutes at 2300-2400 rpm to loosely pellet the platelets. The supernatant from this spin was decanted immediately into a clean cell culture bottle (Corning bottle) and saved in case further centrifugation was needed. The pellet of each tube was resuspended in 2-4 mL of Wash buffer (pH 6.5) (1 L prepared new daily—134 mM NaCl (Sigma S-5150); 3 mM KCl (Sigma P-9333); 1 mM CaCl2 (JT Baker 1311-01); 2 mM MgCl2 (Sigma M-2670); 5 mM glucose (EM 4074-2); 0.3 mM NaH2PO4 (Sigma S-9638)/12 mM NaHCO3 (JT Baker 3506-01); 5 mM HEPES pH 7.4 (Gibco 12379-012); 0.35% BSA (Sigma A-7906); 330 mg Heparin (bovine lung, Sigma H-4898); and 30 mL of ACD) by repeated gentle aspiration using disposable polypropylene sample pipettes.
Wash buffer (pH 6.5) was added to each tube to bring the volume to approximately 40 mL. Each tube was incubated for at least 15 minutes at 37° C.
The tubes were then centrifuged again for 15 minutes at 2300-2400 rpm to loosely pellet the platelets. The supernatant was decanted and discarded. The pellet was resuspended in 2-4 mL of Assay buffer (pH 7.4) (1 L volume—134 mM NaCl; 3 mM KCl; 1 mM CaCl2; 2 mM MgCl2; 5 mM glucose; 0.3 mM NaH2PO4/12 mM NaHCO3; 5 mM HEPES pH 7.4; and 0.35% BSA) by repeated aspiration using disposable polypropylene sample pipettes.
The pooled platelet preparation was counted using a Coulter Counter. […]

Setting [1] is: washed human platelet membranes, competition with [33P]2MeS-ADP.

pIC50, pKi: −log10 of the molar value.

Sequence of P2Y12 receptor (Q9H244 whole entry): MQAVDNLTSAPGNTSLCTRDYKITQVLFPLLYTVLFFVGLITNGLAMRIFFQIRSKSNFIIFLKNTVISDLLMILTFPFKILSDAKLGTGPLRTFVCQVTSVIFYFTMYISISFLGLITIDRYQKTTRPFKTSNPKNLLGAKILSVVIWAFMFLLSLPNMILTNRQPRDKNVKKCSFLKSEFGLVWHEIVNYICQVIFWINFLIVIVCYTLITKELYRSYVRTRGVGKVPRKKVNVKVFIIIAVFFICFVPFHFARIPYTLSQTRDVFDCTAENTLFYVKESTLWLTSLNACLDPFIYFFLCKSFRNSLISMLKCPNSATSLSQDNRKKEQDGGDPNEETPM

With `CCc1cc2c(N3CCN(C(=O)Cc4ccccc4)CC3)nc(SCc3ccccc3)nc2s1` [Example 85, 2-(benzylthio)-6-ethyl-4-[4-(phenylacetyl)piperazin-1-yl]thieno[2,3-d]pyrimidine], the inhibition at 10 µM turned out to be 39.5%. The negative-log IC50 (pIC50) under setting [1] was < 5.00.
For the compound `CCc1cc2c(N3CCN(C(=O)Cc4ccccc4)CC3)nc(SCc3ccco3)nc2s1` [Example 86, 6-ethyl-2-[(2-furylmethyl)thio]-4-[4-(phenylacetyl)piperazin-1-yl]thieno[2,3-d]pyrimidine], 10 µM produced 52.9% inhibition. Under setting [1], the negative logarithm of the IC50 (pIC50) was 5.10 and the pKi was 5.12.

One may read the inhibition as the share of the control response that was lost under treatment. As a reminder, the pIC50 is the negative decadic logarithm of the IC50, by convention in mol/L. High values mean a small IC50, low ones a large IC50. The pKi is −log10 of the Ki, conventionally taken in molar units. Read a low pKi as a large Ki.

For the origin of these results see patent US20080176857A1, “4-Piperazinnylthieno[2,3-d]Pyrimidine Compounds as Platelet Aggregation Inhibitors” (priority 2005, published 2008).
